Test results taken from patent US6727237B2, “Inhibitors of bacterial NAD synthetase” (priority 1998, dated 2004).

Target: T1, bacterial NAD synthetase enzyme (Bacillus subtilis, UniProt P08164)
T1 sequence (P08164 2-272 limits assumed): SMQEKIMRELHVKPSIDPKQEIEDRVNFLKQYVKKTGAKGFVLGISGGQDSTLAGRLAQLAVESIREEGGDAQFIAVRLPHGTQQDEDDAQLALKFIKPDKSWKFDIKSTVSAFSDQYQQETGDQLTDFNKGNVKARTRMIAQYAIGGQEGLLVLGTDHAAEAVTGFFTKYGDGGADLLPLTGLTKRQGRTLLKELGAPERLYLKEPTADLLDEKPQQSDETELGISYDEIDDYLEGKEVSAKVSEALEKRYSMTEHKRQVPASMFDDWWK
Assay: biochemical
Assay type: biochemical

[1] = compound at 0.2 mM (Table 312A)
[2] = compound at 0.2 mM (Table 312B)

Structure (SMILES): CC(=O)c1ccc2[nH]c(CCCCCCCOC(=O)c3cccc([N+](C)(C)C)c3)cc2c1 [Compound 878]
- IC50: 80 µM
- inhibition at 100 µM: 96.4%

Structure (SMILES): Cc1ccc2[nH]c(CCCCCCCC[n+]3ccccc3)cc2c1 [Compound 299]
- % Inhibition [1]: 49.13%

Structure (SMILES): CC(C)c1ccc2[nH]c(CCCCC[n+]3ccccc3)cc2c1 [Compound 320]
- % Inhibition (compound at 0.1 mM (Table 314)): 44.72%

Structure (SMILES): COc1ccc2[nH]c(CCCCCCC[n+]3ccc4ccccc4c3)cc2c1 [Compound 592]
- % Inhibition [1]: 18.70%

Structure (SMILES): COC(=O)c1ccc2[nH]c(CCCCCCC[n+]3cccc4ccccc43)cc2c1 [Compound 490]
- % Inhibition [1]: 2.96%

Structure (SMILES): C[n+]1cccc(C(=O)OCCCOc2ccc(Oc3ccccc3)cc2)c1 [Compound 1070]
- IC50: 36.2 µM
- inhibition at 200 µM: 82%

Structure (SMILES): Fc1ccc2[nH]c(CCCC[n+]3ccc4ccccc4c3)cc2c1 [Compound 559]
- % Inhibition [1]: 33.24%

Structure (SMILES): FC(F)(F)c1ccc2cc(CCCC[n+]3ccc4ccccc4c3)[nH]c2c1 [Compound 505]
- % Inhibition [1]: 25.51%

Structure (SMILES): O=C(O)c1ccc2[nH]c(CCCCCC[n+]3cccc4ccccc43)cc2c1 [Compound 495]
- % Inhibition [1]: 6.80%

Structure (SMILES): C[N+](C)(C)c1ccc(C(=O)OCCCCCCCCc2cc3cc(C(=O)c4ccccc4)ccc3[nH]2)cc1 [Compound 897]
- % Inhibition (compound at 0.25 mM): 50.9%

Structure (SMILES): C[N+](C)(C)c1ccc(C(=O)OCCCCCCCc2cc3cc(Oc4ccccc4)ccc3[nH]2)cc1 [Compound 887]
- IC50: 25 µM

Structure (SMILES): O=C(O)c1ccc2[nH]c(CCCCCCC[n+]3ccc4ccccc4c3)cc2c1 [Compound 604]
- % Inhibition [1]: 34.10%

Structure (SMILES): C[n+]1ccc(C(=O)OCCCCCCCCc2cc3ccc(C(F)(F)F)cc3[nH]2)cc1 [Compound 900]
- % Inhibition (compound at 0.25 mM): 84.9%

Structure (SMILES): Fc1cc(F)c2[nH]c(CCCCCCC[n+]3ccccc3)cc2c1 [Compound 304]
- % Inhibition (compound at 0.1 mM (Table 314)): 29.48%

Structure (SMILES): CC(=O)c1ccc2[nH]c(CCCCCCCCOC(=O)c3ccc([N+](C)(C)C)cc3)cc2c1 [Compound 894]
- IC50: 50 µM
- inhibition at 100 µM: 91.1%

Structure (SMILES): COC(=O)c1cc2ccccc2n1CCCCCCCCCOC(=O)c1cccnc1 [Compound 950]
- % Inhibition (compound at 0.05 mM): 7.32%

Structure (SMILES): c1ccc(C(c2ccccc2)(c2ccccc2)c2ccc3[nH]c(CCCCCC[n+]4cccc5ccccc54)cc3c2)cc1 [Compound 447]
- % Inhibition [1]: 2.30%

Structure (SMILES): COC(=O)c1cc2cc(OCc3ccccc3)ccc2n1CCCCCCCCOC(=O)Cc1ccc([N+](C)(C)C)cc1 [Compound 989]
- % Inhibition (compound at 0.1 mM (Table 314)): 54.83%

Structure (SMILES): FC(F)(F)c1ccc2[nH]c(CCCCCCC[n+]3cccc4ccccc43)cc2c1 [Compound 472]
- % Inhibition (compound at 0.1 mM (Table 314)): 12.76%

Structure (SMILES): C[n+]1cccc(C(=O)OCCCCCCCCOc2cccc(OC(=O)c3ccccc3)c2)c1 [compound 1059]
- % Inhibition [2]: 85%

Structure (SMILES): C[n+]1cccc(C(=O)OCCCCc2cc3ccc(C(F)(F)F)cc3[nH]2)c1 [Compound 913]
- % Inhibition (compound at 0.25 mM): 7.6%

Structure (SMILES): c1ccc(-c2ccc3[nH]c(CCC[n+]4ccccc4)cc3c2)cc1 [Compound 324]
- % Inhibition [1]: 34.99%

Structure (SMILES): c1ccc(-c2ccc3[nH]c(CCCCCCC[n+]4ccc5ccccc5c4)cc3c2)cc1 [Compound 544]
- % Inhibition [1]: 19.66%

Structure (SMILES): COC(=O)c1ccc2[nH]c(CCCC[n+]3cccc4ccccc43)cc2c1 [Compound 487]
- % Inhibition (compound at 0.1 mM (Table 314)): 9.88%

Structure (SMILES): C[n+]1ccc(C(=O)OCCCCc2cc3ccc(C(F)(F)F)cc3[nH]2)cc1 [Compound 898]
- % Inhibition (compound at 0.25 mM): 51.8%

Structure (SMILES): C[n+]1cccc(C(=O)OCCCCCCCCOc2ccc(OC(=O)c3ccccc3)cc2)c1 [compound 1062]
- % Inhibition [2]: 18%

Structure (SMILES): c1ccc(C(c2ccccc2)(c2ccccc2)c2ccc3[nH]c(CCC[n+]4ccccc4)cc3c2)cc1 [Compound 336]
- % Inhibition (compound at 0.1 mM (Table 314)): 18.02%

Structure (SMILES): C[N+](C)(C)c1ccc(C(=O)OCCCCc2cc3cc(Oc4ccccc4)ccc3[nH]2)cc1 [Compound 886]
- IC50: 80 µM
- inhibition at 100 µM: 94.5%

Structure (SMILES): CC(C)c1ccc2[nH]c(CCCCCCCCOC(=O)c3cccc([N+](C)(C)C)c3)cc2c1 [Compound 876]
- IC50: 75 µM
- inhibition at 100 µM: 95.4%

Structure (SMILES): C[N+](C)(C)c1ccc(CC(=O)OCCCCCCCCOc2ccc([N+](=O)[O-])cc2)cc1 [Compound 1073]
- % Inhibition [2]: 78%

Structure (SMILES): C[N+](C)(C)c1ccc(CC(=O)OCCCCCCn2ccc3ccccc32)cc1 [Compound 979]
- % Inhibition [1]: 38.72%

Structure (SMILES): CC(=O)c1ccc2[nH]c(CCCCOC(=O)c3ccc([N+](C)(C)C)cc3)cc2c1 [Compound 892]
- % Inhibition (compound at 0.25 mM): 97.7%

Structure (SMILES): c1ccc(Oc2ccc3[nH]c(CCCCCCCC[n+]4ccc5ccccc5c4)cc3c2)cc1 [Compound 569]
- % Inhibition [1]: 34.84%

Structure (SMILES): O=[N+]([O-])c1cc([N+](=O)[O-])c2[nH]c(CCCCCCC[n+]3ccc4ccccc4c3)cc2c1 [Compound 526]
- % Inhibition [1]: 42.77%

Structure (SMILES): c1ccc(-c2ccc3[nH]c(CCCCCCC[n+]4cccc5ccccc54)cc3c2)cc1 [Compound 436]
- % Inhibition [1]: 11.57%

Structure (SMILES): Fc1ccc2[nH]c(CCC[n+]3ccc4ccccc4c3)cc2c1 [Compound 558]
- % Inhibition [1]: 1.27%

Structure (SMILES): O=[N+]([O-])c1ccc2[nH]c(CCC[n+]3ccc4ccccc4c3)cc2c1 [Compound 546]
- % Inhibition (compound at 0.1 mM (Table 314)): 4.72%

Structure (SMILES): COC(=O)c1cc2ccccc2n1CCCCCCCOC(=O)Cc1ccc(N(C)C)cc1 [Compound 960]
- % Inhibition (compound at 0.05 mM): 6.37%

Structure (SMILES): CC(=O)c1cccc(OCCCCCCCCOC(=O)c2cccnc2)c1 [Compound 1015]
- % Inhibition [2]: 15%

Structure (SMILES): c1ccc(C(c2ccccc2)(c2ccccc2)c2ccc3[nH]c(CCCCCC[n+]4ccc5ccccc5c4)cc3c2)cc1 [Compound 555]
- % Inhibition [1]: 30.89%

Structure (SMILES): FC(F)(F)c1ccc2[nH]c(CCCC[n+]3ccc4ccccc4c3)cc2c1 [Compound 577]
- % Inhibition [1]: 20.58%

Structure (SMILES): CC(C)c1ccc2[nH]c(CCCCOC(=O)Cc3ccc[n+](C)c3)cc2c1 [Compound 934]
- % Inhibition (compound at 0.25 mM): 98.5%

Structure (SMILES): CN(C)c1ccc(CC(=O)OCCCCCCCCOc2ccc(C=CC(=O)c3ccccc3)cc2)cc1 [Compound 1034]
- % Inhibition [2]: 30%

Structure (SMILES): c1ccc(Oc2ccc3[nH]c(CCC[n+]4ccccc4)cc3c2)cc1 [Compound 348]
- % Inhibition [1]: 44.42%

Structure (SMILES): C[N+](C)(C)c1cccc(C(=O)OCCCCc2cc3cc(Oc4ccccc4)ccc3[nH]2)c1 [Compound 871]
- % Inhibition (compound at 0.25 mM): 81.9%

Structure (SMILES): CN(C)c1ccc(CC(=O)OCCCCCCCCOc2ccccc2[N+](=O)[O-])cc1 [Compound 1024]
- % Inhibition [2]: 45%

Structure (SMILES): c1ccc(-c2ccc3[nH]c(CCCC[n+]4ccc5ccccc5c4)cc3c2)cc1 [Compound 541]
- % Inhibition (compound at 0.1 mM (Table 314)): 10.26%

Structure (SMILES): C[n+]1cccc(C(=O)OCCCCCCCCc2cc3ccc(C(F)(F)F)cc3[nH]2)c1 [Compound 915]
- % Inhibition (compound at 0.25 mM): 95.7%

Structure (SMILES): O=[N+]([O-])c1ccc2[nH]c(CCCCCCCC[n+]3ccc4ccccc4c3)cc2c1 [Compound 551]
- % Inhibition [1]: 50.05%

Structure (SMILES): O=C(OCCCCCCCCOc1ccc([N+](=O)[O-])cc1)c1cccnc1 [Compound 995]
- % Inhibition [2]: 27%

Structure (SMILES): CC(=O)c1ccc2[nH]c(CCCCCCCOC(=O)c3ccc([N+](C)(C)C)cc3)cc2c1 [Compound 893]
- % Inhibition (compound at 0.25 mM): 13.8%

Structure (SMILES): CN(C)c1ccc(C(=O)OCCCCCCCc2cc3cc(Oc4ccccc4)ccc3[nH]2)cc1 [Compound 619]
- % Inhibition [1]: 19.53%

Structure (SMILES): COC(=O)c1cc2cc(OCc3ccccc3)ccc2n1CCCCCCCOC(=O)Cc1ccc(N(C)C)cc1 [Compound 964]
- % Inhibition (compound at 0.05 mM): 1.18%

Structure (SMILES): O=C(O)c1ccc2[nH]c(CCCCC[n+]3cccc4ccccc43)cc2c1 [Compound 494]
- % Inhibition [1]: 17.44%

Structure (SMILES): FC(F)(F)c1ccc2cc(CCCCCCC[n+]3ccccc3)[nH]c2c1 [Compound 292]
- % Inhibition [1]: 44.36%
